The values that follow come from PMC5624946, “Extrapyramidal side effects of antipsychotics are linked to their association kinetics at dopamine D2 receptors” (Nature Communications, 2017).

The target in data set [1] is T1, human D2L receptors (Homo sapiens, UniProt P14416). Kind of data set: Competition kinetic binding with PPHT-red tracer (TR-FRET, Motulsky-Mahan). The settings on record: for t 1/2: dissociation half-life from k off.
For data set [2], the target named is T1, human D2L receptors. Kind of data set: biochemical.
Data set [3] deals with T1, human D2L receptors. The data set can be described thus: Equilibrium competition binding with PPHT-red (TR-FRET). Background: Time-resolved FRET reads energy transfer from a long-lived donor to a nearby acceptor.
The target of data set [4] is T1, human D2L receptors.
The target of data set [5] is D2R (Homo sapiens, UniProt P14416). Kind of data set: biochemical.
For data set [6] the following is noted: cited from earlier work.
The conditions of data set [7]: clinical; cited from earlier work.
Setting [8] is: 37 °C, 100 μM GppNHp, 12.5 nM PPHT-red tracer, CHO-D2L membranes, mean ± s.e.m., four experiments.

pKd, pKi: −log10 of the molar value. Where a name gives a salt, the structure may show the parent alone. Read-outs that look alike come from different tables or passages of the source.

T1 sequence (P14416 whole entry): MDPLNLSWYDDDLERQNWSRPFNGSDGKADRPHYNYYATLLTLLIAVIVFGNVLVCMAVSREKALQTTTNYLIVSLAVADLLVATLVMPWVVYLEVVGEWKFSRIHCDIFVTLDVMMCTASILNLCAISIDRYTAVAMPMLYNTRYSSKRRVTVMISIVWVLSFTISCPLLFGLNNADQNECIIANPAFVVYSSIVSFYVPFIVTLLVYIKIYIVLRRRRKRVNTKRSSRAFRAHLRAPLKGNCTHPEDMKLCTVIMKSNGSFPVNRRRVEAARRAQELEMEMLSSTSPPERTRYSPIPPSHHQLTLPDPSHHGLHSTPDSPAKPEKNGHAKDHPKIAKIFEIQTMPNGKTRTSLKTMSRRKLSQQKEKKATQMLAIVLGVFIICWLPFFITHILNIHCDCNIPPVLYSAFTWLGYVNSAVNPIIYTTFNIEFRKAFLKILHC
D2R, sequence (P14416 whole entry): as above

In the case of `CN1CC2c3ccccc3Oc3ccc(Cl)cc3C2C1` (centres unmarked) [Asenapine, asenapine maleate], the “t 1/2” value in data set [1] is reported as 0.75 min.
What is called pKd is −log10 of the Kd, conventionally taken in molar units. By pKi is commonly meant −log10 of the Ki, conventionally taken in molar units. For the compound `O=C(CCCN1CC=C(n2c(=O)[nH]c3ccccc32)CC1)c1ccc(F)cc1` [Droperidol, droperidol], in data set [2], the pKd is 9.71. The compound also gave a pKi in data set [3] of 9.99. In data set [1] (setting [8]), the k off was 0.00633 ± 0.00067 s⁻¹ and the k on is given as 2.01 ± 0.38 × 10^9 M^−1 min^−1. Moreover, the “t 1/2” value in data set [1] was 1.82 min.
Take `OCCN1CCN(CCC=C2c3ccccc3Sc3ccc(C(F)(F)F)cc32)CC1` [Flupenthixol, flupenthixol dihydrochloride]: the “t 1/2” value in data set [4] was 9.63 min. The same compound showed a pKd in data set [2] of 9.67. The pKi in data set [3] was 9.68. In data set [1], the k off is 0.0012 ± 0.000167 s⁻¹ and the k on was 3.50 ± 0.72 × 10^8 M^−1 min^−1.
On to `OCCN1CCN(CCCN2c3ccccc3Sc3ccc(C(F)(F)F)cc32)CC1` [Fluphenazine, fluphenazine dihydrochloride], for which the “t 1/2” value in data set [1] is on record as 17.33 min.
As to `CN1CCN(C2=Nc3ccccc3Oc3ccc(Cl)cc32)CC1` [Loxapine, loxapine succinate], the “t 1/2” value in data set [1] amounted to 0.32 min.
In data set [2], `CCc1c(C)[nH]c2c1C(=O)C(CN1CCOCC1)CC2` (centres unmarked) [Molindone, molindone hydrochloride] gave a pKd of 7.69. In addition, the k off in data set [5] was 0.0282 s⁻¹. For the same compound, the pKi in data set [3] was 7.57. For the same compound, in data set [1] (setting [8]), the k off amounted to 0.0282 ± 0.0075 s⁻¹ and the k on was 8.69 ± 2.6 × 10^7 M^−1 min^−1. In addition, the “t 1/2” value in data set [1] turned out to be 0.41 min.
With `CNc1cc(OC)c(C(=O)NC2CCN(Cc3ccccc3)C2C)cc1Cl` (centres unmarked) [Nemonapride, nemonapride], the “t 1/2” value in data set [1] was found to be 38.50 min.
In the case of `Cc1nc2n(c(=O)c1CCN1CCC(c3noc4cc(F)ccc34)CC1)CCCC2O` (centres unmarked) [Paliperidone, paliperidone], the pKd in data set [2] was 8.60. In data set [5], this compound had a k off of 0.0075 s⁻¹. In data set [3], this compound gave a pKi of 8.54. In addition, in data set [1] (setting [8]), the k off amounted to 0.00733 ± 0.00067 s⁻¹ and the k on is recorded as 1.80 ± 0.29 × 10^8 M^−1 min^−1. The “t 1/2” value in data set [1] was found to be 1.58 min.
Take `OCCN1CCN(CCCN2c3ccccc3Sc3ccc(Cl)cc32)CC1` [Perphenazine, perphenazine]: the pKd in data set [2] was 9.73. In data set [3], this compound had a pKi of 9.53. Besides, in data set [1] (setting [8]), the k off amounted to 0.00383 ± 0.00033 s⁻¹ and the k on is 1.29 ± 0.17 × 10^9 M^−1 min^−1. The “t 1/2” value in data set [1] is given as 3.01 min.
On to `OCCOCCN1CCN(C2=Nc3ccccc3Sc3ccccc32)CC1` [Quetiapine, quetiapine hemifumarate], for which the “plasma half-life, in words” value in data set [6] was “short”.
Take `CCN1CCC[C@H]1CNC(=O)c1c(O)c(Cl)cc(Cl)c1OC` [Raclopride, raclopride]: the “t 1/2” value in data set [1] was 1.31 min.
For the compound `O=C1NCCN1CCN1CCC(c2cn(-c3ccc(F)cc3)c3ccc(Cl)cc23)CC1` [Sertindole, sertindole], in data set [1], the “t 1/2” value worked out at 1.17 min.
The same measure, in the same setting: for `O=C(CCCN1CCC2(CC1)C(=O)NCN2c1ccccc1)c1ccc(F)cc1` [Spiperone, spiperone] the value was 18.24 min.
Turning to `CN1CCN(CCCN2c3ccccc3Sc3ccc(C(F)(F)F)cc32)CC1` [Trifluoperazine, trifluoperazine dihydrochloride], in data set [4], the k off is 0.00367 ± 0.00017 s⁻¹ and the k on is 1.10 ± 0.20 × 10^9 M^−1 min^−1. The compound also had a pKd in data set [2] of 9.69. In data set [3], this compound gave a negative logarithm of the Ki (pKi) of 9.48. In data set [1], the “t 1/2” value came to 3.15 min.
For `O=C1Cc2cc(CCN3CCN(c4nsc5ccccc45)CC3)c(Cl)cc2N1` [Ziprasidone, ziprasidone hydrochloride monohydrate], in data set [1], the “t 1/2” value is given as 0.65 min.
Same read-out and setting: the result for `CN(C)CCOC1=Cc2ccccc2Sc2ccc(Cl)cc21` [Zotepine, zotepine] reads 0.49 min.
With `O=C1CCc2ccc(OCCCCN3CCN(c4cccc(Cl)c4Cl)CC3)cc2N1` [aripiprazole], the “propensity to cause prolactin release, in words” value in data set [7] is “very little propensity to cause prolactin release”.
As for (+)-butaclamol [(+)Butaclamol], the “t 1/2” value in data set [4] is listed as 26.65 min.
